Measurements taken from patent publication US20150315188A1, “COMPOUNDS AND METHODS FOR TREATMENT OF HYPERTENSION” (MEDIVATION TECHNOLOGIES, INC., priority 2012, published 2015).

Key:
[1] = target: T1, Human adrenergic α1B receptor (Homo sapiens, UniProt P35368); experiment: β-Arrestin GPCR functional assay, adrenergic α1B (Protocol B); assay type: cell-based; settings: for IC50: β-arrestin, antagonist vs nor-epinephrine EC80
T1 sequence (P35368 1-520): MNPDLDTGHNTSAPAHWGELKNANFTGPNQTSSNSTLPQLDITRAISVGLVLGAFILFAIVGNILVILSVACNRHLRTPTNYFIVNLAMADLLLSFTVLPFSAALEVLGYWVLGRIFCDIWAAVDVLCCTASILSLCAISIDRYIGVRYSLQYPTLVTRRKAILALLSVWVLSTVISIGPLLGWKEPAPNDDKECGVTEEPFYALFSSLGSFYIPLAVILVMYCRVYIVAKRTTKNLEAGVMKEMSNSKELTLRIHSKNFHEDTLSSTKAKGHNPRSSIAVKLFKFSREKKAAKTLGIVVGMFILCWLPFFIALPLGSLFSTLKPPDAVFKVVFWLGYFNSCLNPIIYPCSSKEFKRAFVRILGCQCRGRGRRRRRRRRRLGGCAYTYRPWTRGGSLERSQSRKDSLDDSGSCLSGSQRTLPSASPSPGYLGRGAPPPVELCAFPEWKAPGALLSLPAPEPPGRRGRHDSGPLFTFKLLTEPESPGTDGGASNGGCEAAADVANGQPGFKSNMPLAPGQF
Description: To evaluate the activity of compounds in β-Arrestin GPCR functional assays, recombinant CHO cell line (DiscoveRX), over expressed with human adrenergic α1B receptor were used. The experiment was done with a kit of DiscoveRX as per recommended protocol of the supplier. Cells were harvested from culture flask using cell dissociation solution (CDS) and plated at a density of 12,000 cells/well in CP reagent (supplied with the kit) in a half area 96-well white polystyrene plate. After 24 h incubation at 37° C., compounds at various concentrations in 1% (final) DMSO were charged to the cells for 30 min at 37° C. Active nor-epinephrine (-NE) at its EC80 concentrations (50 nM) were then added to the cells and incubated for another 90 min at 37° C. Detection mix was prepared by mixing Path Hunter cell assay buffer, Emerald II solution and Galactone star solution in a ratio of 19:5:1 and incubated with the cells for 60 min at RT in the dark. The reading was taken in Envision at luminescence mode. Biochemical assay results are presented as the percent Inhibition in Table B2a, or IC50 values in Table B2b.

[2] = target: T2, Human adrenergic α2B receptor (Homo sapiens, UniProt P18089); experiment: Radioligand binding, adrenergic α2B (Protocol Group B); parameters: purchased Milipore (Millipore); settings: for Percentage inhibition of ligand binding, Adrenergic α2B (10 nM) / inhibition at 0.01 µM: 10 nM compound; for Percentage inhibition of ligand binding, Adrenergic α2B (10 nM) / Percentage inhibition of ligand binding, Adrenergic α2B (30 nM) / Percentage inhibition of ligand binding, Adrenergic α2B (0.1 μM) / Ki / inhibition at 0.01 µM / inhibition at 0.03 µM / inhibition at 0.1 µM: Protocol Group B; for Percentage inhibition of ligand binding, Adrenergic α2B (10 nM): 0.01 µM; for Percentage inhibition of ligand binding, Adrenergic α2B (30 nM) / inhibition at 0.03 µM: 30 nM compound; for Percentage inhibition of ligand binding, Adrenergic α2B (30 nM): 0.03 µM; for Percentage inhibition of ligand binding, Adrenergic α2B (0.1 μM) / inhibition at 0.1 µM: 0.1 μM compound; for Ki: estimated Ki, read-out: Ki α2B; for inhibition at 0.01 µM: read-out: Percentage inhibition of ligand binding, Adrenergic α2B (10 nM); for inhibition at 0.03 µM: read-out: Percentage inhibition of ligand binding, Adrenergic α2B (30 nM); for inhibition at 0.1 µM: read-out: Percentage inhibition of ligand binding, Adrenergic α2B (0.1 μM)
T2 sequence (P18089 1-450): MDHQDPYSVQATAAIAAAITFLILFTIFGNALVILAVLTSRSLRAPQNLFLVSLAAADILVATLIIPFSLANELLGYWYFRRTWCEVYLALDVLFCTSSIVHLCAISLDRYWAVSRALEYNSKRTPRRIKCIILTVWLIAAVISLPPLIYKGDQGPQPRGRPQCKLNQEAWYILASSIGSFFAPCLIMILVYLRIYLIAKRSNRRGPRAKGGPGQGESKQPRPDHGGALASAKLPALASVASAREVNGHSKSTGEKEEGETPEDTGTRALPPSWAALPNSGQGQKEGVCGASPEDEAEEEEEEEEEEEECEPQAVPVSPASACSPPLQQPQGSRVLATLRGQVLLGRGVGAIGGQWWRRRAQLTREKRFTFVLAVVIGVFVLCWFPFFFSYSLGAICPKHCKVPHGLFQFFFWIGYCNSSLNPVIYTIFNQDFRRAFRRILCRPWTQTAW
Outline: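 Compounds at various concentrations in 1% DMSO were tested on recombinant membranes in Tris-HCl pH 7.4 buffer containing MgCl2, CaCl2 and 0.2% BSA.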

[3] = target: T3, Human adrenergic α2A receptor (Homo sapiens, UniProt P08913); experiment: Radioligand binding, adrenergic α2A (Protocol Group B); parameters: purchased Milipore (Millipore); settings: for Percentage inhibition of ligand binding, Adrenergic α2A (0.1 μM) / inhibition at 0.1 µM: 0.1 μM compound; for Percentage inhibition of ligand binding, Adrenergic α2A (0.1 μM) / Percentage inhibition of ligand binding, Adrenergic α2A (0.3 μM) / Ki / inhibition at 0.1 µM / inhibition at 0.3 µM: Protocol Group B; for Percentage inhibition of ligand binding, Adrenergic α2A (0.3 μM) / inhibition at 0.3 µM: 0.3 μM compound; for Ki: estimated Ki; for inhibition at 0.1 µM: read-out: Percentage inhibition of ligand binding, Adrenergic α2A (0.1 μM); for inhibition at 0.3 µM: read-out: Percentage inhibition of ligand binding, Adrenergic α2A (0.3 μM); for inhibition at 10 µM: 10 μM compound, read-out: Percentage inhibition of ligand binding, Adrenergic α2A, 10 μM
T3 sequence (P08913 1-465): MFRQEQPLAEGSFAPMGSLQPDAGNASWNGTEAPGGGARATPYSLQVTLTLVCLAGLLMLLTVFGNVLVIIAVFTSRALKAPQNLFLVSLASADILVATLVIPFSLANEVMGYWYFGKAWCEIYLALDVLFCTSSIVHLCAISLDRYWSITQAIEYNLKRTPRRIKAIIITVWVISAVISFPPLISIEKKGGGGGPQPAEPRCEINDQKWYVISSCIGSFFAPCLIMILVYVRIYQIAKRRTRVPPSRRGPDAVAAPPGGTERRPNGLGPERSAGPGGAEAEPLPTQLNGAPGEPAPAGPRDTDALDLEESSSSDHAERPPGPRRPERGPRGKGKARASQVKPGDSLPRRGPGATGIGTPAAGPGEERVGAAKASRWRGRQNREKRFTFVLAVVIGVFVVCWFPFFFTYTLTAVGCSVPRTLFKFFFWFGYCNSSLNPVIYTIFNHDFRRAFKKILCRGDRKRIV
Outline: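 Compounds (1% DMSO vehicle, various concentrations) competed against 2 nM [^3H]MK-912 on recombinant receptor membranes for 60 min at 25° C, Tris-HCl pH 7.4 buffer with Mg2+, Ca2+, BSA. Bound radioligand filtered and counted; 10 μM rauwolscine set nonspecific binding. Values: percent inhibition of specific binding or estimated Ki.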

[4] = 3.2 nM compound, concentration series, 0.0032 µM
[5] = 0.032 μM compound, concentration series, 0.032 µM

Compound | IC50 [1] | Percentage inhibition of ligand binding, Adrenergic α2B (10 nM) [2] | Percentage inhibition of ligand binding, Adrenergic α2B (30 nM) [2] | Percentage inhibition of ligand binding, Adrenergic α2B (0.1 μM) [2] | Ki [2] | Percentage inhibition of ligand binding, Adrenergic α2A (0.1 μM) [3] | Percentage inhibition of ligand binding, Adrenergic α2A (0.3 μM) [3] | Ki [3] | inhibition at 0.01 µM [2] | inhibition at 0.03 µM [2] | inhibition at 0.1 µM [2] | inhibition at 0.1 µM [3] | inhibition at 0.3 µM [3] | inhibition at 10 µM ([3]; concentration series) | further results
OC(Cn1c2c(c3cc(F)ccc31)C1CCCN1CC2)c1ccncc1 (single isomer, unassigned) [18b] | 357 nM |  |  |  | 1.03 nM |  |  | 55.9 nM | 94% | 97% | 100% | 45% | 71% | 99% | inhibition at 0.1 µM ([1]; 0.1 μM compound, nor-epinephrine at EC80 (50 nM), read-out: Percentage inhibition, Adrenergic α1B): 19%; inhibition at 0.3 µM ([1]; 0.3 μM compound, nor-epinephrine at EC80 (50 nM), read-out: Percentage inhibition, Adrenergic α1B): 46%; inhibition at 30 pM ([2]; 0.03 nM compound, concentration series, read-out: Percentage inhibition of ligand binding, Adrenergic α2B, 0.03 nM): 19%; inhibition at 0.0001 µM ([2]; 0.1 nM compound, concentration series, read-out: Percentage inhibition of ligand binding, Adrenergic α2B, 0.1 nM): 6%; inhibition at 0.00032 µM ([2]; 0.32 nM compound, concentration series, read-out: Percentage inhibition of ligand binding, Adrenergic α2B, 0.32 nM): 14%; inhibition at 0.001 µM ([2]; 1 nM compound, concentration series, read-out: Percentage inhibition of ligand binding, Adrenergic α2B, 1 nM): 29%; inhibition at 0.0032 µM ([2]; 3.2 nM compound, concentration series, read-out: Percentage inhibition of ligand binding, Adrenergic α2B, 3.2 nM): 78%; inhibition at 0.0032 µM ([3]; 3.2 nM compound, concentration series, read-out: Percentage inhibition of ligand binding, Adrenergic α2A, 3.2 nM): 8%; inhibition at 0.01 µM ([3]; 10 nM compound, concentration series, read-out: Percentage inhibition of ligand binding, Adrenergic α2A, 10 nM): 12%; inhibition at 0.03 µM ([3]; 0.03 μM compound, concentration series, read-out: Percentage inhibition of ligand binding, Adrenergic α2A, 0.03 μM): 27%; inhibition at 0.32 µM ([3]; 0.32 μM compound, concentration series, read-out: Percentage inhibition of ligand binding, Adrenergic α2A, 0.32 μM): 76%; inhibition at 1 µM ([3]; 1 μM compound, concentration series, read-out: Percentage inhibition of ligand binding, Adrenergic α2A, 1 μM): 90%; inhibition at 3.2 µM ([3]; 3.2 μM compound, concentration series, read-out: Percentage inhibition of ligand binding, Adrenergic α2A, 3.2 μM): 96%
Cc1cc(C)c2c(c1)c1c(n2CC(C)(O)c2ccncc2)CCN2CCCC12 (single isomer, unassigned) [19b] | 351 nM | 91% | 97% | 99% | 2.4 nM | 51% | 77% | 36 nM |  |  |  |  |  | 100% | Percentage inhibition, Adrenergic α1B ([1]; 0.1 μM compound, nor-epinephrine at EC80 (50 nM)): 25%; Percentage inhibition, Adrenergic α1B ([1]; 0.3 μM compound, nor-epinephrine at EC80 (50 nM)): 52%; Percentage inhibition of ligand binding, Adrenergic α2B, 0.032 nM ([2]; 0.032 nM compound, concentration series, 32 pM): 6%; Percentage inhibition of ligand binding, Adrenergic α2B, 0.1 nM ([2]; 0.1 nM compound, concentration series, 0.0001 µM): 0%; Percentage inhibition of ligand binding, Adrenergic α2B, 0.32 nM ([2]; 0.32 nM compound, concentration series, 0.00032 µM): 2%; Percentage inhibition of ligand binding, Adrenergic α2B, 1 nM ([2]; 1 nM compound, concentration series, 0.001 µM): 4%; Percentage inhibition of ligand binding, Adrenergic α2B, 3.2 nM [2, 4]: 31%; Percentage inhibition of ligand binding, Adrenergic α2B, 0.032 μM [2, 5]: 95%; Percentage inhibition of ligand binding, Adrenergic α2A, 3.2 nM [3, 4]: 12%; Percentage inhibition of ligand binding, Adrenergic α2A, 10 nM ([3]; 10 nM compound, concentration series, 0.01 µM): 4%; Percentage inhibition of ligand binding, Adrenergic α2A, 0.032 μM [3, 5]: 27%; Percentage inhibition of ligand binding, Adrenergic α2A, 0.32 μM ([3]; 0.32 μM compound, concentration series, 0.32 µM): 67%; Percentage inhibition of ligand binding, Adrenergic α2A, 1 μM ([3]; 1 μM compound, concentration series, 1 µM): 84%; Percentage inhibition of ligand binding, Adrenergic α2A, 3.2 μM ([3]; 3.2 μM compound, concentration series, 3.2 µM): 95%
CCOC(Cn1c2c(c3cc(C)ccc31)CN(C)CC2)c1ccncc1 (single isomer, unassigned) [43a] | 670 nM |  |  |  | 2.8 nM | 46% | 63% | 50 nM | 64% | 85% | 96% |  |  |  | 

Second part, led by results:

IC50 [1] | Percentage inhibition of ligand binding, Adrenergic α2B (10 nM) [2] | Percentage inhibition of ligand binding, Adrenergic α2B (30 nM) [2] | Percentage inhibition of ligand binding, Adrenergic α2B (0.1 μM) [2] | Ki [2] | Percentage inhibition of ligand binding, Adrenergic α2A (0.1 μM) [3] | Percentage inhibition of ligand binding, Adrenergic α2A (0.3 μM) [3] | Ki [3] | inhibition at 0.01 µM [2] | inhibition at 0.03 µM [2] | inhibition at 0.1 µM [2] | inhibition at 0.1 µM [3] | inhibition at 0.3 µM [3] | inhibition at 10 µM ([3]; concentration series) | Compound | further results
224 nM | 94% | 96% | 99% | 0.71 nM | 72% | 78% | 21.7 nM |  |  |  |  |  |  | CC(O)(Cn1c2c(c3cc(Cl)cc(F)c31)C1CCCN1CC2)c1ccncc1 (single isomer, unassigned) [52b] | 
149 nM |  |  |  | 0.84 nM |  |  | 13 nM | 99% | 100% | 101% | 80% | 89% |  | CC(O)(Cn1c2c(c3cc(Cl)cc(F)c31)C1CCCN1CC2)c1ccncc1 (single isomer, unassigned) [52a] | 
